Measurements: US12729177B2, “Small molecules promoting sympathetic nerve regeneration” (OREGON HEALTH & SCIENCE UNIVERSITY, priority 2020, dated 2026)

Key:
[1] = test system: sympathetic nerve density in the infarct; assay: Sympathetic reinnervation of the infarct after myocardial ischemia-reperfusion (TH+ fiber density); format: in vivo, mouse; conditions: mice, s.c. daily days 3-10 after MI; HJ-01, HJ-02 10 mg/kg, ISP 10 μmol; day 14
cardiac vasculature = assay: Vascular immunohistochemistry (α-SMA, CD31) after MI; format: in vivo, mouse; conditions: 14 days after MI; infarct, peri-infarct, remote myocardium
sympathetic axons = assay: Compartmentalized cultures: microfluidic chambers, axonal compartment coated with CSPGs; conditions: added to the axonal (distal) compartment for 3 hours
sympathetic neurons = assay: Sympathetic outgrowth assay: dissociated sympathetic neurons on laminin or laminin and CSPGs, live cell imaging; conditions: 10 ng/mL NGF, imaging over 30 hr
ISO-stimulated PVCs = assay: Isoproterenol-induced arrhythmias after MI, ECG telemetry; format: in vivo, mouse; conditions: MI mice, s.c. daily days 3-10; HJ-01, HJ-02 10 mg/kg, ISP 10 μmol; 10 μg isoproterenol, 14 days after MI
infarct size = assay: Infarct size after myocardial ischemia-reperfusion; format: in vivo, mouse; conditions: MI mice, treatment beginning three days after reperfusion (days 3-10); infarct as percentage of LV
[2] = test system: PTPσ inhibition of TrkB signaling (ERK1/2 phosphorylation); assay: TrkB stimulated ERK phosphorylation in TrkB-HEK-293t cells co-expressing full-length PTPσ; conditions: BDNF-induced
[3] = target: T1, PTPσ D1D2 catalytic domain (Homo sapiens, UniProt Q13332); conditions: for D1 phosphatase activity (pNPP): 1 μM HJ-02, orthovanadate 10 mM
T1 sequence (Q13332 1304-1948 limits assumed): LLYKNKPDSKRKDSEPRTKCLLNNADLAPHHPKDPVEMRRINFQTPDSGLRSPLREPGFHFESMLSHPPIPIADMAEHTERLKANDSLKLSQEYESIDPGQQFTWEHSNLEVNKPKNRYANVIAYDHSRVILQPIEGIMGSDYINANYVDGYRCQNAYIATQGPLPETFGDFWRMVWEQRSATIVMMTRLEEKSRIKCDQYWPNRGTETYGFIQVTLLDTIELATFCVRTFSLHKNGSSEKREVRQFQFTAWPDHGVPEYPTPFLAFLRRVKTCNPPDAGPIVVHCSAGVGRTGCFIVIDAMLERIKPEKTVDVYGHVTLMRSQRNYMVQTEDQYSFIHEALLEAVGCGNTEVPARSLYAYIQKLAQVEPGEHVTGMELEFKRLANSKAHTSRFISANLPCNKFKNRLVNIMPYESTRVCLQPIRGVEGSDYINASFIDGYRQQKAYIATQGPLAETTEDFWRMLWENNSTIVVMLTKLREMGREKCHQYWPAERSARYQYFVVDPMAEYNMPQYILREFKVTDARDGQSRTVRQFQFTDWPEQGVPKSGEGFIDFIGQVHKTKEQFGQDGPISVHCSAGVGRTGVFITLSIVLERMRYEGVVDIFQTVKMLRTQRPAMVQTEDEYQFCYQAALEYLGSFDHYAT

[4] = test system: panel of other protein phosphatases; assay: Screen against a panel of other protein phosphatases; format: biochemical
[5] = test system: cardiac output and ejection fraction; assay: Echocardiography of cardiac function after MI; format: in vivo, mouse; conditions: MI mice, response to isoproterenol
TrkA-PTPσ interaction = TrkA-PTPσ interaction (Homo sapiens, UniProt Q13332); assay: Immunoprecipitation assay: TrkA-RFP pulldown of PTPσ in transfected HEK-293t cells; conditions: 1 uM; HEK-293 cells treated with CSPGs and NGF; normalized to vehicle
Sequence of TrkA-PTPσ interaction (Q13332 30-1948): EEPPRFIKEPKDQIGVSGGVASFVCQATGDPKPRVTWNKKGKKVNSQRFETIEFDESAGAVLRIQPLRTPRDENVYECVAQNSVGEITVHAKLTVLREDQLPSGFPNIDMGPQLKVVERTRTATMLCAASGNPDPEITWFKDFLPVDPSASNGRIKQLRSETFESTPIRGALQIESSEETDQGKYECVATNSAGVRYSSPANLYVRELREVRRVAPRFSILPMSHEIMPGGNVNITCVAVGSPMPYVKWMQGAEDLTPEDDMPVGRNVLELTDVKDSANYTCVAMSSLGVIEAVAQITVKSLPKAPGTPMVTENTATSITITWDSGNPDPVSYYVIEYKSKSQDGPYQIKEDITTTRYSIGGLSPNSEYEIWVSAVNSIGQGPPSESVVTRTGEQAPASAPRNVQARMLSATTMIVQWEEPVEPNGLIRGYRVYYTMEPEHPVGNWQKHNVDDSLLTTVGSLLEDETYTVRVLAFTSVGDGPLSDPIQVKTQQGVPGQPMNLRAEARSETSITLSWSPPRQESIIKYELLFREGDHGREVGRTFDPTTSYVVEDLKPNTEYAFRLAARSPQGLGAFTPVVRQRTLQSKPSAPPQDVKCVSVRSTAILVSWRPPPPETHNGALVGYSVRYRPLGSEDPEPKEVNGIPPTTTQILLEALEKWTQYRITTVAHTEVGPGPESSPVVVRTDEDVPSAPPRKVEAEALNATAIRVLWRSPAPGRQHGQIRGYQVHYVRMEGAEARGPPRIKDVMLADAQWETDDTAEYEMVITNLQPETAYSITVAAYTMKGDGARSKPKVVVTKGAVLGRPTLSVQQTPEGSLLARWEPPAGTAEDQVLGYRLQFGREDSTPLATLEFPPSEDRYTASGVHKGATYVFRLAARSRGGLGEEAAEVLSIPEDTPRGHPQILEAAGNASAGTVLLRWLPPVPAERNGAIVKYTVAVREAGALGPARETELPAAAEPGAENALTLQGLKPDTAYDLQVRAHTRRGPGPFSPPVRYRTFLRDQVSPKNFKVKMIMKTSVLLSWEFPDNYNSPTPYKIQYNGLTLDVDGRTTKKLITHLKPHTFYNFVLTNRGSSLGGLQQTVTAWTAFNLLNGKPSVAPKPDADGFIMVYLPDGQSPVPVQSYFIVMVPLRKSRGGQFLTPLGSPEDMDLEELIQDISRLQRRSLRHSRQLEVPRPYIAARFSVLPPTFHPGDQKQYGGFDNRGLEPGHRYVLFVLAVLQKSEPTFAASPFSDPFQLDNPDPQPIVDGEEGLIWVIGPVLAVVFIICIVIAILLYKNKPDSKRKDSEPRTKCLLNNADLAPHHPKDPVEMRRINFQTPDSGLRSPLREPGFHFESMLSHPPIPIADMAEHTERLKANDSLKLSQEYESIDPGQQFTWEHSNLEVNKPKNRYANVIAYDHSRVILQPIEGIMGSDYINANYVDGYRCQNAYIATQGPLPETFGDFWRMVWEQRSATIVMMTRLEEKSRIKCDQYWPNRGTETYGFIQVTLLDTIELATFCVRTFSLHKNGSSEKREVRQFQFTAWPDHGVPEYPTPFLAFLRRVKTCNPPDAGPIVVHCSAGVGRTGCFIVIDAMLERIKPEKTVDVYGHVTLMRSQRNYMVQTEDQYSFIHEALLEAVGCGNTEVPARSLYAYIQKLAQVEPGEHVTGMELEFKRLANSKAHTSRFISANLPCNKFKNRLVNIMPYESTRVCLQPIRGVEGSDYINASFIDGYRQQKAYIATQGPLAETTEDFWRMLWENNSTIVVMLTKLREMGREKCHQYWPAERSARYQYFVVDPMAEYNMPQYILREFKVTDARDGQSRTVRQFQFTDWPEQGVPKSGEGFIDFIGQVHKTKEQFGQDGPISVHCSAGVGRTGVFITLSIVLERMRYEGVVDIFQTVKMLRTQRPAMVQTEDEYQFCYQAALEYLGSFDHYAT

PTPα catalytic activity = conditions: read-out: IC50 against PTPα catalytic activity in vitro; cited from earlier work

Compound	nerve density within the infarct [1]	density of vasculature (α-SMA, CD31) (cardiac vasculature)	defasiculation of axon bundles growing over CSPGs (sympathetic axons)	rate of axon outgrowth over CSPGs (sympathetic axons)	concentration fully restoring sympathetic axon outgrowth over CSPGs (sympathetic neurons) [nM]	ISO-stimulated arrhythmias (PVCs) (ISO-stimulated PVCs)	infarct size (infarct size)	concentration rescuing ERK1/2 phosphorylation [2] [nM]	inhibition of other protein phosphatases in the screen [4]	beta adrenergic receptor supersensitivity [5]	D1 phosphatase activity (pNPP) [3]	also measured
C=CC(=O)Nc1cc(OC)c(OCC2CCCCC2)cc1C(=O)O [HJ-01, 2-acrylamido-5-(cyclohexylmethoxy)-4-methoxybenzoic Acid]	restored nerve density within the infarct to the density in sham and uninjured peri-infarct myocardium	no difference in the density of vasculature between any treatment groups	stimulated the defasiculation of axon bundles	enhanced the rate of axon outgrowth	100	had arrhythmias similar to sham mice	significantly smaller infarcts compared to vehicle hearts	100	neither HJ-01 nor HJ-02 inhibited any of the protein phosphatases	prevented beta adrenergic receptor supersensitivity	–	catalytic activity of recombinant PTPσ ([3]; concluding statement, no concentration printed for HJ-01): do not inhibit the catalytic activity of recombinant PTPσ
C=CC(=O)Nc1cc(OC)c(OCCCCCC)cc1C(=O)O [HJ-02, 2-acrylamido-5-(hexyloxy)-4-methoxybenzoic Acid]	restored nerve density within the infarct to the density in sham and uninjured peri-infarct myocardium	no difference in the density of vasculature between any treatment groups	stimulated the defasiculation of axon bundles	enhanced the rate of axon outgrowth	30	had arrhythmias similar to sham mice	significantly smaller infarcts compared to vehicle hearts	10	neither HJ-01 nor HJ-02 inhibited any of the protein phosphatases	prevented beta adrenergic receptor supersensitivity	did not inhibit D1 phosphatase activity	–
CCC(=O)Nc1cc(OC)c(OCC2CCCCC2)cc1C(=O)O [HJ-03, 5-(cyclohexylmethoxy)-4-methoxy-2-propionamidobenzoic Acid]	–	–	–	–	–	–	–	–	–	–	–	amount of PTPRS co-immunoprecipitated with TrkA-RFP (TrkA-PTPσ interaction): had no effect
CC1(C)Cc2c(O)c(C=O)c3c(c2C1)C(=O)OC(O)C3 (stereo not drawn) [Illudalic acid]	–	–	–	–	–	–	–	–	–	–	–	IC50 (PTPα catalytic activity): ~1 µM
[Na+].[Na+].[Na+].[O]=[V]([O-])([O-])[O-] [orthovanadate, sodium-orthovanadate, reference compound]	–	–	–	–	–	–	–	–	–	–	negligible phosphatase activity	–
chondroitinase ABC [reference compound]	–	–	stimulated the defasiculation of axon bundles	enhanced the rate of axon outgrowth	–	–	–	–	–	–	–	–
